Patent publication US9051592B2, “Methods of ganglioside production” (Garnet BioTherapeutics, Inc., priority 2012, dated 2015)
Read-outs that look alike come from different tables or passages of the source.

Tests used:
[1] = system: human bone marrow-derived cells (HBM); test: GM1 up-regulation, CTB-HRP normalized to Alamar Blue (Example 3, FIG. 3); type: cell-based
[2] = system: SHSY-5Y; type: cell-based, human
[3] = system: SHSY-S; type: cell-based
[4] = system: SK-N-AS; type: cell-based
[5] = system: CHO-K1; type: cell-based, Chinese Hamster
[6] = system: HEK293; type: cell-based, Human
[7] = system: GBT-ABMSC; type: cell-based, Human
[8] = system: Lonza BMSC; test: GM1 induction by CLQ treatment, CTB-Alexa488 staining (Table 4); type: cell-based, Human; settings: Lonza MSC basal medium + growth supplements, 10,000 per well, CLQ 48-120 hours
Method: Human bone marrow-derived stromal cells, adipose-derived stromal cells, dermal fibroblasts, and fibroblasts from subjects diagnosed with GM1 gangliosidosis, as well as immortalized neuroblastoma cells (SHSY-5Y, SHSY-S and SK-N-AS), Chinese Hamster Ovary cells (CHO-K1), and Human Embryonic Kidney cells (HEK293) were purchased from commercial sources. Cells were cultured on 24 well plates in standard culture medium, at a density of 2000-20,000 cells/well overnight and either maintained in standard culture medium (CONTROL) or treated with chloroquine (CLQ) according to the conditions listed in Table 4 below. Cells were maintained in a tissue culture incubator at approximately 37° C. in a humidified atmosphere comprising approximately 5% CO2 and approximately 21% O2 balanced with N2. After treatment for 48-120 hours, the cells were fixed with 4% paraformaldehyde and stained with CTB-Alexa488 to detect GM1 ganglioside. Extensive GM1 accumulation is evident in most cells types compared to controls maintained in standard culture media alone. (FIGS. 10 and 11 and Table 4).

[9] = system: ADSC; type: cell-based, Human
[10] = system: Dermal fibroblast; type: cell-based, Human
[11] = system: GM1 fibroblast; type: cell-based, Human
[12] = system: SHSY-5Y, SHSY-S, SK-N-AS, CHO-K1 and HEK293 cells; type: cell-based
[13] = system: GBT-ABMSC, Lonza BMSC, Lonza ADSC, dermal fibroblast and GM1 fb cells; type: cell-based, Human
[14] = system: Adult Human Bone Marrow Cells
[15] = system: SHSY-5Y cells
[16] = system: Affected sheep bone marrow cells (SBM)
[17] = system: Human bone marrow cells (HBM); settings: HBM 20,000 cells/well, serum-free medium 72 H, chloroquine 48 H
[18] = system: PC12 (rat adrenal medulla tumor) cells; settings: Yuyama et al., FEBS Lett. 580:6972-6976 (2006); cited from earlier work
[19] = system: HT22 (mouse hippocampal) cells; settings: Hirata et al., J. Neurochem. 119:839-847 (2011); cited from earlier work
[20] = system: Affected sheep bone marrow cells (SBM); test: GM1 induction in affected sheep bone marrow cells by different treatments, CTB-Alexa 488 staining (Table 2); settings: affected SBM 20,000 cells/well, 72 H (Poly-L-Lysine coated coverslips 6 Days)
[21] = system: Parkinson's disease subjects; settings: short-term treatment; Schneider et al., Neurology 50:1630-1636 (1998); cited from earlier work
[22] = system: Parkinson's disease subjects; settings: five-year study; Schneider et al., J. Neurol. Sci. 292:45-51 (2010); cited from earlier work
[23] = system: central nervous system lesions in experimental animals; settings: background statement; cited from earlier work
[24] = pretreatment; background statement; cited from earlier work

Compound: CCN(CC)CCCC(C)Nc1ccnc2cc(Cl)ccc12 (centres unmarked) [Chloroquine, chloroquine]
- up-regulation of GM1 expression (CTB-HRP normalized to Alamar Blue) versus control [1]: approximately 8 fold
- % Increase in Degree of Staining with induction [2]: 104%
- % Increase in Degree of Staining with induction [3]: 19%
- % Increase in Degree of Staining with induction [4]: 19%
- % Increase in Degree of Staining with induction [5]: 83%
- % Increase in Degree of Staining with induction [6]: 15%
- % Increase in Degree of Staining with induction [7]: 65%
- % Increase in Degree of Staining with induction [8]: 119%
- % Increase in Degree of Staining with induction [9]: 28%
- % Increase in Degree of Staining with induction [10]: 63%
- % Increase in Degree of Staining with induction [11]: 28%
- GM1 signal (CTB-Alexa488) compared to control conditions, FIG. 10 [12]: more abundant and intense compared to control conditions for all cell types
- GM1 signal (CTB-Alexa488) compared to control conditions, FIG. 11 [13]: more abundant and intense compared to control conditions for all cell types
- Cell Death [14]: 10-20%
- Cell Death [15]: +
- Degree of Cell Death [16]: +
- Degree of GM1 Staining [17]: +++++
- Degree of GM1 Staining ([17]; listed as CLQ): most intense staining
- accumulation in PC12 cells [18]: induce accumulation
- GM1 levels in HT22 cells [19]: only moderately increased GM1 levels
- Degree of GM1 Staining ([20]; listed as CLQ): also induced GM1, but not as much as CLQ/NIM

Compound: CCCCCCCCCCCCC/C=C/[C@@H](O)[C@H](CO[C@@H]1O[C@H](CO)[C@@H](O[C@@H]2O[C@H](CO)[C@H](O[C@@H]3O[C@H](CO)[C@H](O)[C@H](O[C@@H]4O[C@H](CO)[C@H](O)[C@H](O)[C@H]4O)[C@H]3NC(C)=O)[C@H](O[C@]3(C(=O)O)C[C@@](O)(CO)[C@@H](NC(C)=O)[C@H]([C@H](O)CO)O3)[C@H]2O)[C@H](O)[C@H]1O)NC(=O)CCCCCCCCCCCCCCCCC [GM1]
- symptom reduction [21]: significant symptom reduction
- clinical benefit of long-term use [22]: may provide some clinical benefit
- safety of long-term use [22]: safe
- recovery from central nervous system lesions [23]: significant biochemical and behavioral recovery
- damage resulting from neurotoxin exposures [24]: inhibits damage

Compound: N[C@H]1C(O)O[C@H](CO)[C@@H](O)[C@@H]1O (some centres unmarked) [Glucosamine, glucosamine]
- Degree of GM1 Staining [20]: also induced GM1, but to a lesser degree

Compound: O=C[C@H](O)[C@@H](O)[C@@H](O)[C@H](O)CO [Switch from No glucose to galactose, galactose]
- Cell Death [15]: −

Compound: PDGF
- Degree of Cell Death [16]: −
